From patent US6420395B1, “Azacyclooctane and heptane derivatives, their preparation and use in therapy” (Neurosearch A/S, priority 1997, dated 2002)
pIC50: −log10 of the molar value. Structures can show the parent of a compound that is named as a salt. Where two headings read alike, the source gives them in different places.

Tests used:
[1] = molecular target: nicotinic ACh receptors comprised of α4 and β2 subunits (3H-cytisine binding site) (Rattus norvegicus, UniProt P09483+P12390); experiment: In vitro inhibition of 3H-cytisine binding
Procedure: In vitro inhibition of ^3H-cytisine binding
The predominant subtype with high affinity for nicotine is comprised of α4 and β2 subunits. nAChRs of the latter type can selectively be labelled by the nicotine agonist ^3H-cytisine.
Preparations are performed at 0-4° C. unless otherwise indicated. […] The homogenate is centrifuged at 27,000×g for 10 min. The supernatant is discarded and the pellet is resuspended in fresh buffer and centrifuged a second time. The final pellet is resuspended in fresh buffer (35 ml per g of original tissue) and used for binding assays.
Aliquots of 500 μl homogenate are added to 25 μl of test solution and 25 μl of ^3H-cytisine (1 nM, final concentration), mixed and incubated for 90 min at 2° C. Non-specific binding is determined using (−)-nicotne (100 μM, final concentration). After incubation the samples are added 5 ml of ice-cold buffer and poured directly onto Whatman GF/C glass fibre filters under suction and immediately washed with 2×5 ml ice-cold buffer. The amount of radioactivity on the filters is determined by conventional liquid scintillation counting. Specific binding is total binding minus non-specific binding.

[2] = molecular target: nAChR formed by the α7 subunit (3H-α-bungarotoxin binding site) (Rattus norvegicus, UniProt Q05941); experiment: biochemical
[3] = approximate potency relative to morphine; cited from earlier work
[4] = read-out: 3H-α-bungarotoxin IC50
[5] = rat cerebral cortex homogenate, 1 nM 3H-cytisine, 90 min at 2° C., read-out: 3H-cytisine IC50

nAChR formed by the α7 subunit (3H-α-bungarotoxin binding site), sequence (Q05941 23-502): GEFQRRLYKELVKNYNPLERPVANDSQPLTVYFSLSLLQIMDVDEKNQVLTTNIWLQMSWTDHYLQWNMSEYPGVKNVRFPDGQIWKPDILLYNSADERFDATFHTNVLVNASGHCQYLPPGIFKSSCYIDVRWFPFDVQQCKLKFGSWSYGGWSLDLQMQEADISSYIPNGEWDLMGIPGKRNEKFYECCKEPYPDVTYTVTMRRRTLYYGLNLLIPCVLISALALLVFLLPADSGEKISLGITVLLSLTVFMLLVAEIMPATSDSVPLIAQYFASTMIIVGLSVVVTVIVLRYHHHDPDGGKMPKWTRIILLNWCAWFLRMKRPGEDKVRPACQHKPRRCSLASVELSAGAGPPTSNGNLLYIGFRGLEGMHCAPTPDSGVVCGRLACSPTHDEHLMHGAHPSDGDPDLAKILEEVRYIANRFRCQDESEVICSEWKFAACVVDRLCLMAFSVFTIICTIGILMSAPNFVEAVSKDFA
nicotinic ACh receptors comprised of α4 and β2 subunits (3H-cytisine binding site), sequence (P09483 31-630): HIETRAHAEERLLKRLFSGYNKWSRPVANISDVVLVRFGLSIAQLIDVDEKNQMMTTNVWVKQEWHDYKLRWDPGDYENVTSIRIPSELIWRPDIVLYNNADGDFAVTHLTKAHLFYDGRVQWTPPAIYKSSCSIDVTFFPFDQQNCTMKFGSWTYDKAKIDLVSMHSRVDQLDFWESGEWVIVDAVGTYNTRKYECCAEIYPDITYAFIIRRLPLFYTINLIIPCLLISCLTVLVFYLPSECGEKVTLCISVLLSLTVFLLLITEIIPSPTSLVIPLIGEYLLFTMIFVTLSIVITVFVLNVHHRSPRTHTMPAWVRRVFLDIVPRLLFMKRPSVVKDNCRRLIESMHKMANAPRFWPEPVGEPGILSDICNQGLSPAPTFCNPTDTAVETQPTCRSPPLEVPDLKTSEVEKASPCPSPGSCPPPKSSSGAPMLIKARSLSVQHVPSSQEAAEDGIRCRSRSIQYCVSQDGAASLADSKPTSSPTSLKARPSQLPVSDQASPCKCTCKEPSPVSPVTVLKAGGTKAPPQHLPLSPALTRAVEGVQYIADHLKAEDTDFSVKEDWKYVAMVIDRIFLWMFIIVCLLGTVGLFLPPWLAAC
nicotinic ACh receptors comprised of α4 and β2 subunits (3H-cytisine binding site), sequence (P12390 25-500): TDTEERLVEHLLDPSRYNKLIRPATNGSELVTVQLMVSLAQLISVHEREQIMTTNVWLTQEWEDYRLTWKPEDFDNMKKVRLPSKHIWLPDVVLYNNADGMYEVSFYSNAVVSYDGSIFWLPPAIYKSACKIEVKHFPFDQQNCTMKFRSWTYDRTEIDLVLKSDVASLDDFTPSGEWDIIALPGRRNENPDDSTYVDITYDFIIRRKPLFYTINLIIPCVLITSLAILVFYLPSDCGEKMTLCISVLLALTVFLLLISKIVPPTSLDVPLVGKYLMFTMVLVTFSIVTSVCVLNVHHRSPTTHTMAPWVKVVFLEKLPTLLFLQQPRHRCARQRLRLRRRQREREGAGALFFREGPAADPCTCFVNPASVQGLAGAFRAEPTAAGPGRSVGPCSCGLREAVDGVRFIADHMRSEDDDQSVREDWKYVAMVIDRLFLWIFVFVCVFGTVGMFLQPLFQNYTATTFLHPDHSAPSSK

c1cncc(C2CCCCCCN2)c1 (racemic) (as salt: fumaric acid salt) [Compound 1a, (R,S)-1-H-2-(3-pyridyl)azacyclooctane fumaric acid salt]
melting point: 141 to 142 °C

c1ccc2ncc(C3CCCCCCN3)cc2c1 (racemic) (as salt: fumaric acid salt) [Compound 3a, (R,S)-1-H-2-(3-quinolinyl)azacyclooctane fumaric acid salt]
melting point: 172 to 174 °C

CCSc1cncc(C2CCCCCN2)c1 (racemic) (as salt: fumaric acid salt) [Compound 5a, (R,S)-1-H-2-(5-thioethyl-3-pyridyl)azacycloheptane fumaric acid salt]
melting point: 159 to 161 °C

CCSc1cncc(C2CCCCCCN2C)c1 (racemic) (as salt: fumaric acid salt) [Compound 5b, (R,S)-1-Methyl-2-(5-thioethyl-3-pyridyl)azacyclooctane fumaric acid salt]
melting point: 143.5 to 145.5 °C

c1cncc(C2CCCCCCN2)c1 (racemic) [Compound 1a, (R,S)-1-H-2-(3-pyridyl)azacyclooctane fumaric acid salt]
pIC50 [1]: 6.70 | pIC50 [2, 4]: 5.70

CN1CCCCCCC1c1cccnc1 (racemic) [Compound 1b, (R,S)-1-Methyl-2-(3-pyridyl)azacyclooctane]
pIC50 [1]: 6.25 | pIC50 [2, 4]: 4.17

c1ccc2ncc(C3CCCCCCN3)cc2c1 (racemic) [Compound 3a, (R,S)-1-H-2-(3-quinolinyl)azacyclooctane fumaric acid salt]
pIC50 [1, 5]: 5.89 | pIC50 [2]: < 4.52

CCSc1cncc(C2CCCCCN2)c1 (racemic) [Compound 5a, (R,S)-1-H-2-(5-thioethyl-3-pyridyl)azacycloheptane fumaric acid salt]
pIC50 [1, 5]: 5.37 | pIC50 [2]: < 4.52

CCSc1cncc(C2CCCCCCN2C)c1 (racemic) [Compound 5b, (R,S)-1-Methyl-2-(5-thioethyl-3-pyridyl)azacyclooctane fumaric acid salt]
pIC50 [1, 5]: 5.71

CCSc1cncc(C2CCCCCCN2)c1 (racemic) [Compound 6a, (R,S)-1-H-2-(5-thioethyl-3-pyridyl)azacyclooctane]
pIC50 [1, 5]: 6.00

c1cncc(C2=NCCCCCC2)c1 [Compound 1c, 2-(3-Pyridyl)azacyclooct-1-ene]
pIC50 [1]: 7.23 | pIC50 [2, 4]: 5.85

Clc1ccc(C2CC3CCC2N3)cn1 (centres unmarked) [Epibatidine]
analgesic potency, times that of morphine [3]: ~500 times
